PubChem BioAssay (NCI)
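The compound was tested at five concentrations on cells cultured in 96-well plates, with a 48-hour exposure period. Abbreviation: GI50, concentration required for 50% inhibition of growth. TGI denotes the concentration required for complete inhibition of growth.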

Experiments:
Test in all cases: inhibition of tumour cell growth, NCI panel, 48 h
KM12 colon = tested on: KM12 colon
SN12C renal = tested on: SN12C renal
RPMI-8226 leukemia = tested on: RPMI-8226 leukemia
CAKI-1 renal = tested on: CAKI-1 renal
NCI-H522 lung = tested on: NCI-H522 lung
OVCAR-3 ovarian = tested on: OVCAR-3 ovarian
786-0 renal = tested on: 786-0 renal
NCI-H226 lung = tested on: NCI-H226 lung
BT-549 breast = tested on: BT-549 breast
SR leukemia = tested on: SR leukemia

Structure (SMILES)	TGI (KM12 colon) [µM]	TGI (SN12C renal) [µM]	TGI (RPMI-8226 leukemia) [µM]	TGI (CAKI-1 renal) [µM]	TGI (NCI-H522 lung) [µM]	TGI (OVCAR-3 ovarian) [µM]	TGI (786-0 renal) [µM]	TGI (NCI-H226 lung) [µM]	GI50 (KM12 colon) [µM]	GI50 (SN12C renal) [µM]	GI50 (BT-549 breast) [µM]	TGI (BT-549 breast) [µM]	GI50 (SR leukemia) [µM]	TGI (SR leukemia) [µM]	GI50 (RPMI-8226 leukemia) [µM]	GI50 (CAKI-1 renal) [µM]	GI50 (NCI-H522 lung) [µM]	GI50 (OVCAR-3 ovarian) [µM]	GI50 (786-0 renal) [µM]	GI50 (NCI-H226 lung) [µM]
O=C(CC1=Nc2nnc(-c3nnc4n3C(=O)C(CC(=O)C3CC3)=N4)n2C1=O)C1CC1	> 100	> 100	> 100	> 100	> 100	> 100	> 100	> 100	–	–	–	–	–	–	–	–	–	–	–	–
COc1c(O)c2c3c(c1OC)-c1ccccc1CC3N(S(=O)(=O)c1ccc(C)cc1)CC2 (centres undefined)	> 50	> 50	4.25	> 50	3.55	2.68	> 50	> 50	1.76	2.59	3.46	42.2	1.36	7.09	1.51	2.12	1.28	1.18	4.89	11.4
COc1ccc(-c2cc(-c3ccccc3)nc(NCCNc3ccnc4cc(Cl)ccc34)n2)cc1	3.52	3.3	–	2.96	3.8	3.39	3.35	4.56	1.84	1.61	–	–	0.435	> 100	–	1.57	1.87	1.82	1.72	1.96
COc1ccc(Cc2nc3cc(OC)c(OC)cc3c(=O)[nH]2)cc1	10.4	> 100	> 100	> 93.4	> 100	> 66.1	> 100	> 100	2.68	11.2	4.84	29.7	–	–	4.05	6.64	14.5	12.5	7.31	9.2
OCC(O)C(O)C(O)C(O)c1nn[nH]n1 (centres undefined)	> 100	> 100	> 100	> 100	> 100	> 100	> 100	> 100	–	–	–	–	–	> 100	–	–	–	–	–	–
O=C1CCS/C(=N/S(=O)(=O)c2ccc(N3N=C4c5ccccc5CC4C3c3cccs3)cc2)N1Cc1ccccc1 (centres undefined)	41	38.3	> 100	54.3	40	60.8	32.4	59.3	17.1	18.5	26.2	75.2	–	–	18.1	24	15.9	25.9	17.1	26.5
NNC(=O)N/N=C1\CN(c2ccc(Cl)cc2Cl)C(=O)C(=O)C1c1nc2ccccc2o1 (centres undefined)	> 100	> 100	> 100	> 100	> 100	> 100	> 100	> 100	–	–	–	–	–	> 100	–	–	–	–	–	–
O=C(Oc1ccc2c(c1)CN(Cc1ccccc1)CO2)c1ccccc1	44.7	34.1	52.7	37.8	22.3	29.7	30.7	–	–	–	–	34.1	–	69.2	–	–	–	–	–	–
COc1ccc(C(=O)O/N=C2/CCCCC2CN(C)C)cc1 (centres undefined)	> 100	> 100	> 100	> 100	> 100	> 100	> 100	> 100	–	–	–	–	–	> 100	–	–	–	–	–	–
COc1cc(CCc2ccc(OC(C)=O)cc2)cc(OC)c1OC	> 100	> 100	> 100	> 100	> 100	> 100	> 100	> 100	–	–	–	–	–	–	–	–	–	–	–	–
COc1cc2cc3c(c(O)c2c(O)c1-c1c(OC)cc2cc4c(c(O)c2c1O)C(=O)O[C@H](C)C4)C(=O)O[C@H](C)C3	> 100	38.8	–	61.2	> 100	48.4	64.8	> 100	38.8	18.3	–	–	70.6	> 100	–	23.9	44.3	21.2	21.1	32.7
O=C(/C(=C/c1ccc(O)cc1)c1ccccc1)c1ccccc1	29.1	32.5	42.3	38.2	28.7	–	34.5	30.8	–	–	–	–	–	61.2	–	–	–	–	–	–
COCC1N=C(c2cc(OC)c(OC)c(OC)c2-c2cc3c(cc2[C@H](C)O)OCO3)O[C@H]1c1ccccc1 (some centres undefined)	> 100	> 100	> 100	–	–	> 100	> 100	> 100	–	–	–	–	–	–	–	–	–	–	–	–
c1cncc(C2ONC3=NCCN32)c1 (centres undefined)	> 100	31.7	–	42.2	> 100	27.8	39.2	68.7	21.2	14.6	22.9	70	–	–	–	8.92	9.59	2.86	6.22	20
Nc1nc(=S)[nH]c(C(=O)Nc2nccs2)c1-c1ccccc1	> 100	> 100	> 100	> 100	> 100	> 100	> 100	> 100	–	–	–	–	–	> 100	–	–	–	–	–	–
O=c1[nH]c2ccc([N+](=O)[O-])cc2nc1/C(=N/Nc1ccccc1)C(O)c1ccco1 (centres undefined)	> 100	> 100	> 100	–	96.5	> 100	> 100	> 100	–	–	–	–	–	> 100	–	–	–	–	–	–
Nc1ccc(C(=O)/C=C/c2ccccc2O)cc1	> 100	> 100	–	> 100	> 100	> 100	> 100	> 100	–	–	–	–	–	> 100	–	–	–	–	–	–
N#CCC1(n2cc(-c3ncnc4[nH]ccc34)cn2)CN(C2CCN(C(=O)c3ccnc(C(F)(F)F)c3F)CC2)C1	> 100	> 100	> 100	–	> 100	> 100	> 100	> 100	36.1	69.8	37.5	> 100	51.4	> 100	98.2	–	> 100	> 100	> 100	19.3
[Cl-].[Gd+3].[O-]/N=C(\c1ccccc1)c1ccccn1.[O-]/N=C(\c1ccccc1)c1ccccn1.[O-]/N=C(\c1ccccc1)c1ccccn1	> 100	> 100	> 100	> 100	> 100	79.5	> 100	> 100	37.3	66.8	–	–	–	–	> 100	42.3	40.4	21.3	57.8	40.4

Structure (SMILES)	TGI (KM12 colon) [µM]	TGI (SN12C renal) [µM]	TGI (RPMI-8226 leukemia) [µM]	TGI (CAKI-1 renal) [µM]	TGI (NCI-H522 lung) [µM]	TGI (OVCAR-3 ovarian) [µM]	TGI (786-0 renal) [µM]	TGI (NCI-H226 lung) [µM]	GI50 (KM12 colon) [µM]	GI50 (SN12C renal) [µM]	GI50 (BT-549 breast) [µM]	TGI (BT-549 breast) [µM]	GI50 (SR leukemia) [µM]	TGI (SR leukemia) [µM]	GI50 (RPMI-8226 leukemia) [µM]	GI50 (CAKI-1 renal) [µM]	GI50 (NCI-H522 lung) [µM]	GI50 (OVCAR-3 ovarian) [µM]	GI50 (786-0 renal) [µM]	GI50 (NCI-H226 lung) [µM]
O=C(c1ccccc1)C(Br)C(Br)c1ccccc1 (centres undefined)	11.3	22.6	8.11	3.34	2.62	3.65	28.7	7.66	3.5	10.4	12.8	25.6	–	–	3.44	1.6	1.18	1.99	15.2	2.94
C=C1CC/C=C(\C)CC[C@H](C(=C)C)[C@@H](O)/C=C(/CO)CCC1O (some centres undefined)	> 100	> 100	71.6	> 100	> 100	> 100	> 100	> 100	4.58	> 100	48.2	> 100	–	–	32	81.4	60.7	40	> 100	> 100
C/C(CC(=O)Nc1cccc([N+](=O)[O-])c1)=N\NC(=O)C[n+]1ccccc1	> 100	–	> 100	–	> 100	> 100	> 100	> 100	–	–	–	–	–	–	–	–	–	–	–	–
c1ccc2c3c([nH]c2c1)C1C2CCCCN2C(c2ccncc2)N1CC3 (centres undefined)	> 100	> 100	87.3	> 100	> 100	> 100	> 100	–	–	–	–	–	–	> 100	–	–	–	–	–	–
CCCCCCCCCCCCCCCC(=O)OCC1OC(n2cc(F)c(=O)[nH]c2=O)C(NC(=O)N(CCCl)N=O)C(O)C1O (centres undefined)	4.91	15.6	20.5	20.5	10	20.9	3.59	24	–	–	–	–	–	5.8	–	–	–	–	–	–
COC(=O)CC1CC2(C(=O)OC)c3[nH]c4ccccc4c3CCN2C1=O (centres undefined)	> 100	> 100	–	> 100	> 100	> 100	> 100	> 100	–	–	–	–	–	> 100	–	–	–	–	–	–
O=C(N/N=C/c1ccc(F)cc1)c1ccc(C(F)(F)F)nc1Nc1cccc(C(F)(F)F)c1	3.76	7.73	3.34	2.32	4.54	0.713	4.62	4.17	1.38	1.63	–	–	0.426	2.4	1.07	0.34	1.61	0.254	0.691	1.26
O=C(C(=O)c1cc(Br)ccc1O)c1cc(Br)ccc1O	11.4	90.9	88.2	6.05	9.3	9.32	13.7	–	3.21	3.47	–	–	3.15	53.2	2.71	2.16	2.94	2.84	3.87	–
COc1ccc2c(c1)[n+](=O)c(C(C)=O)c(C)n2[O-]	> 100	> 100	> 100	> 100	> 100	> 100	> 100	> 100	–	–	–	–	–	–	–	–	–	–	–	–
COC(=O)C1CCC(=O)N1/C(C)=N/NC(=O)Nc1ccc(Cl)c(Cl)c1 (centres undefined)	> 100	> 100	> 100	> 100	–	> 100	> 100	–	–	–	–	–	–	> 100	–	–	–	–	–	–
Nc1ncnc2c1nc(Cl)n2C1OC(CO)C(O)C1O (centres undefined)	> 100	> 100	–	> 100	> 95.3	> 100	> 100	> 85.2	–	–	–	> 100	–	> 100	–	–	–	–	–	–
Clc1ccc2c(NCCCN3CCN(c4nc(N5CCOCC5)nc5ccccc45)CC3)ccnc2c1	–	–	3.46	–	3.73	4.77	3.03	–	–	–	1.64	3.08	1.35	4.57	1.15	–	1.97	2.15	1.59	–
O=C(O)Cn1ccc(=O)c2cc([N+](=O)[O-])ccc21	> 100	> 100	–	> 100	> 100	> 100	> 100	> 100	–	–	–	> 100	–	> 100	–	–	–	–	–	–
CN(C)c1ccc(C2CC(C)(O)Oc3cc4c(cc32)OCO4)cc1 (centres undefined)	> 100	> 100	47.6	> 100	> 100	> 100	> 100	> 100	–	–	–	–	–	> 100	–	–	–	–	–	–
CCCCCCCCCCCCCCC(C)CCC(=O)O (centres undefined)	> 100	> 100	–	> 100	–	> 100	> 100	> 100	–	–	–	–	–	–	–	–	–	–	–	–
CC1=CCN(c2ccccn2)OC1c1ccccc1 (centres undefined)	> 100	> 100	> 100	> 100	> 100	> 100	> 100	> 100	–	–	–	–	–	> 100	–	–	–	–	–	–
CCOc1ccccc1NC(=O)C1=C(C)NC(C)=C(C(=O)Nc2ccccc2OCC)C1c1ccc([N+](=O)[O-])cc1	> 100	> 100	> 100	> 100	> 100	> 100	> 100	> 100	–	–	–	–	–	> 100	–	–	–	–	–	–
O=C(/C=C(\[O-])c1ccccc1)CCCCCCC(=O)/C=C(\[O-])c1ccccc1.O=C(/C=C(\[O-])c1ccccc1)CCCCCCC(=O)/C=C(\[O-])c1ccccc1.O=C(/C=C(\[O-])c1ccccc1)CCCCCCC(=O)/C=C(\[O-])c1ccccc1.[Nd+3].[Nd+3]	> 50	> 50	> 50	> 50	> 50	> 50	> 50	> 50	> 50	> 50	–	–	–	–	43.2	> 50	> 50	> 50	> 50	> 50
